Target: Calcium/calmodulin-dependent protein kinase type II subunit beta (Homo sapiens) (UniProt Q13554)
Settings: not given

SMILES | ΔTm
NS(=O)(=O)c1ccc(Nc2nc(OCC3CCCCC3)c3nc[nH]c3n2)cc1 | 0.6 °C
CC(C)[C@H](CO)Nc1nc(Nc2cc(N)cc(Cl)c2)c2ncn(C(C)C)c2n1 [AMINOPURVALANOL] | 0.5 °C
Cc1cc(C=C2C(=O)C=CC2=O)cc(C)c1O | -0.1 °C

Target: Calcium/calmodulin-dependent protein kinase type II subunit gamma (Homo sapiens) (UniProt Q13555)
Settings: not given

SMILES | ΔTm
NS(=O)(=O)c1ccc(Nc2nc(OCC3CCCCC3)c3nc[nH]c3n2)cc1 | 0.3 °C
CC(C)[C@H](CO)Nc1nc(Nc2cc(N)cc(Cl)c2)c2ncn(C(C)C)c2n1 [AMINOPURVALANOL] | 1.3 °C
Cc1cc(C=C2C(=O)C=CC2=O)cc(C)c1O | 0.3 °C

Target: Serine/threonine-protein kinase OSR1 (Homo sapiens) (UniProt O95747)
Settings: not given

SMILES | ΔTm
NS(=O)(=O)c1ccc(Nc2nc(OCC3CCCCC3)c3nc[nH]c3n2)cc1 | 1 °C
CC(C)[C@H](CO)Nc1nc(Nc2cc(N)cc(Cl)c2)c2ncn(C(C)C)c2n1 [AMINOPURVALANOL] | 2.6 °C
Cc1cc(C=C2C(=O)C=CC2=O)cc(C)c1O | 0.1 °C

Target: T1, Dual specificity mitogen-activated protein kinase kinase 6 (Homo sapiens) (UniProt P52564)
T1 sequence (whole entry): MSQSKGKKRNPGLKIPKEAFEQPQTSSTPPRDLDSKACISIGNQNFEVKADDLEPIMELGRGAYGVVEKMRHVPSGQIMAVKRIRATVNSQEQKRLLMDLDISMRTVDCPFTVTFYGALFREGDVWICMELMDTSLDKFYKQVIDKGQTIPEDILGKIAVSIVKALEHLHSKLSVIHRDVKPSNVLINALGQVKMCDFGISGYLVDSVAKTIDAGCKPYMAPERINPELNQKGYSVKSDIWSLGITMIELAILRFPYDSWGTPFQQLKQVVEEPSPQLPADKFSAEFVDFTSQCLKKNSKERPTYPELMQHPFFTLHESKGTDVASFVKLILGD
Settings: not given

SMILES | ΔTm
NS(=O)(=O)c1ccc(Nc2nc(OCC3CCCCC3)c3nc[nH]c3n2)cc1 | 2 °C
CC(C)[C@H](CO)Nc1nc(Nc2cc(N)cc(Cl)c2)c2ncn(C(C)C)c2n1 [AMINOPURVALANOL] | 1.3 °C
Cc1cc(C=C2C(=O)C=CC2=O)cc(C)c1O | 7.9 °C

Tested on: not listed separately
Test: Inhibition of Cdk4/cyclin D1
Settings: not given

IC50 | SMILES
1600 nM | NS(=O)(=O)c1ccc(Nc2nc(OCC3CCCCC3)c3nc[nH]c3n2)cc1

Target: Calcium/calmodulin-dependent protein kinase type II subunit alpha (Homo sapiens) (UniProt Q9UQM7)
Settings: not given

SMILES | ΔTm
NS(=O)(=O)c1ccc(Nc2nc(OCC3CCCCC3)c3nc[nH]c3n2)cc1 | 0.6 °C
CC(C)[C@H](CO)Nc1nc(Nc2cc(N)cc(Cl)c2)c2ncn(C(C)C)c2n1 [AMINOPURVALANOL] | 0.5 °C
Cc1cc(C=C2C(=O)C=CC2=O)cc(C)c1O | 1.2 °C

Target: Proto-oncogene tyrosine-protein kinase Src (Homo sapiens, UniProt P12931)
Test: Inhibition of Src
Settings: read-out: IC50

SMILES | IC50
Cc1cc(C=C2C(=O)C=CC2=O)cc(C)c1O | 4400 nM

Target: Mitogen-activated protein kinase 6 (Homo sapiens) (UniProt Q16659)
Sequence (Q16659 whole entry): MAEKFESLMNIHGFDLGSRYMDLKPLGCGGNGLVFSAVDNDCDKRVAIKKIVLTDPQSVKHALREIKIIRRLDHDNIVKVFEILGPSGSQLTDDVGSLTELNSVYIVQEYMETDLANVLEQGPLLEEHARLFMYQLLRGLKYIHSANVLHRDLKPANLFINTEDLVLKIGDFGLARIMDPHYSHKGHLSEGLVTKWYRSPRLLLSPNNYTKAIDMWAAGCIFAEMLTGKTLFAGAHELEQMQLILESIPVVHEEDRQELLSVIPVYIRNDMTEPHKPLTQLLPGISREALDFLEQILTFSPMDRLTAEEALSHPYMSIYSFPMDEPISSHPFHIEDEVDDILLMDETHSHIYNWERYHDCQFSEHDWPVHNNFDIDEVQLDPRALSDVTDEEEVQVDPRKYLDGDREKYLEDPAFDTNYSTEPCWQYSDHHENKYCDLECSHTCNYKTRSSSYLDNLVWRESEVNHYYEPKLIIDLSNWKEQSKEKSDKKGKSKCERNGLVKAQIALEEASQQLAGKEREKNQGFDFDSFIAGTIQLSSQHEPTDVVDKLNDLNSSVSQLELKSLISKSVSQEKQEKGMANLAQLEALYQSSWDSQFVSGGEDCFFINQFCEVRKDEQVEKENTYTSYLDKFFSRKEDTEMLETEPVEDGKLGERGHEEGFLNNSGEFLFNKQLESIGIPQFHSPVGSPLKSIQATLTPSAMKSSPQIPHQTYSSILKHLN
Settings: not given

SMILES | ΔTm
NS(=O)(=O)c1ccc(Nc2nc(OCC3CCCCC3)c3nc[nH]c3n2)cc1 | 1 °C
CC(C)[C@H](CO)Nc1nc(Nc2cc(N)cc(Cl)c2)c2ncn(C(C)C)c2n1 [AMINOPURVALANOL] | 1.5 °C
Cc1cc(C=C2C(=O)C=CC2=O)cc(C)c1O | -1.6 °C

Target: TRAF2 and NCK-interacting protein kinase (Homo sapiens) (UniProt Q9UKE5)
Settings: not given

SMILES | ΔTm
NS(=O)(=O)c1ccc(Nc2nc(OCC3CCCCC3)c3nc[nH]c3n2)cc1 | -0.3 °C
Cc1cc(C=C2C(=O)C=CC2=O)cc(C)c1O | -4.1 °C

Target: Dual specificity protein kinase CLK3 (Homo sapiens) (UniProt P49761)
Sequence (P49761 whole entry, looked up): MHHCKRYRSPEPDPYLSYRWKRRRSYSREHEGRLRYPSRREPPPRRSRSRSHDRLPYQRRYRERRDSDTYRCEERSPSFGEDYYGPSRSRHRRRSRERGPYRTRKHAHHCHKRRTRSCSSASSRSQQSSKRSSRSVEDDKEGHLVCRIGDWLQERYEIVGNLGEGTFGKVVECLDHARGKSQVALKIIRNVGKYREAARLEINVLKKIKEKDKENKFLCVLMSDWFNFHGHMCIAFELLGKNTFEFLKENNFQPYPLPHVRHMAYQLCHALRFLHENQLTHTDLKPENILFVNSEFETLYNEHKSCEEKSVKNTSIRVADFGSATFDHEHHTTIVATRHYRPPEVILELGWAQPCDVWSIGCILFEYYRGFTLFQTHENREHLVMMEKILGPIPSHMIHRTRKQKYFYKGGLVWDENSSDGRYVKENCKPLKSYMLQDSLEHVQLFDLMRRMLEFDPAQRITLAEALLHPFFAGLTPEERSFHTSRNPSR
Settings: not given

SMILES | ΔTm
NS(=O)(=O)c1ccc(Nc2nc(OCC3CCCCC3)c3nc[nH]c3n2)cc1 | 1.3 °C
CC(C)[C@H](CO)Nc1nc(Nc2cc(N)cc(Cl)c2)c2ncn(C(C)C)c2n1 [AMINOPURVALANOL] | 6.1 °C
Cc1cc(C=C2C(=O)C=CC2=O)cc(C)c1O | -1.5 °C

Target: Death-associated protein kinase 3 (Homo sapiens) (UniProt O43293)
Sequence (O43293 whole entry, looked up): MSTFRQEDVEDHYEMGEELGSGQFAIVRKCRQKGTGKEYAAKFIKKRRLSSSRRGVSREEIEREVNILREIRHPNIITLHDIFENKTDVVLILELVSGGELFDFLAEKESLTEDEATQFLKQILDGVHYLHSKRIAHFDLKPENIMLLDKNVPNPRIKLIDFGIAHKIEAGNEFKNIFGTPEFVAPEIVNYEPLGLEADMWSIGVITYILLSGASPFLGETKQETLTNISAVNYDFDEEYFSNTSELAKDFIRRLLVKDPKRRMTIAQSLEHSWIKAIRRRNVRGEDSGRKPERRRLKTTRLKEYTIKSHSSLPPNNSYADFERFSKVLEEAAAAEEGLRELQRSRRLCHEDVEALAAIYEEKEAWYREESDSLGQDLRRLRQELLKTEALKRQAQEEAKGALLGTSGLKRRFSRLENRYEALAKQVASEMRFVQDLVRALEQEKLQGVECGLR
Settings: not given

SMILES | ΔTm
NS(=O)(=O)c1ccc(Nc2nc(OCC3CCCCC3)c3nc[nH]c3n2)cc1 | 0.8 °C
CC(C)[C@H](CO)Nc1nc(Nc2cc(N)cc(Cl)c2)c2ncn(C(C)C)c2n1 [AMINOPURVALANOL] | 3.4 °C
Cc1cc(C=C2C(=O)C=CC2=O)cc(C)c1O | 0.6 °C

Tested on: not listed separately
Test: Inhibition of Cdk5/p35
Settings: not given

SMILES | IC50
CC(C)[C@H](CO)Nc1nc(Nc2cc(N)cc(Cl)c2)c2ncn(C(C)C)c2n1 [AMINOPURVALANOL] | 20 nM

Target: Calcium/calmodulin-dependent protein kinase type II subunit delta (Homo sapiens) (UniProt Q13557)
Sequence (Q13557 whole entry): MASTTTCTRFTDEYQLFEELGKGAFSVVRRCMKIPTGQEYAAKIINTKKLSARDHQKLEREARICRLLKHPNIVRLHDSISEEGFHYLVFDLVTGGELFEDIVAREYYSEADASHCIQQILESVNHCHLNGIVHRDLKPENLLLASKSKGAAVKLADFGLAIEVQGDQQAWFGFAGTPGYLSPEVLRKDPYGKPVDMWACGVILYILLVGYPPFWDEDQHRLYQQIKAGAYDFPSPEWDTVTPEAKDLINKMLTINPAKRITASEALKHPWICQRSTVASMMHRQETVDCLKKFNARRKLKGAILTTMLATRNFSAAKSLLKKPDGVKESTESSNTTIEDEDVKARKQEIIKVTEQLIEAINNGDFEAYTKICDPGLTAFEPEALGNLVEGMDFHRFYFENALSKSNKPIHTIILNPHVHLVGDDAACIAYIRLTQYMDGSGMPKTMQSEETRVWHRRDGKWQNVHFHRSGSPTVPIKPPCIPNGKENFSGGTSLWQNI
Settings: not given

SMILES | ΔTm
NS(=O)(=O)c1ccc(Nc2nc(OCC3CCCCC3)c3nc[nH]c3n2)cc1 | 0.2 °C
CC(C)[C@H](CO)Nc1nc(Nc2cc(N)cc(Cl)c2)c2ncn(C(C)C)c2n1 [AMINOPURVALANOL] | 0.3 °C
Cc1cc(C=C2C(=O)C=CC2=O)cc(C)c1O | 1.1 °C

Target: Serine/threonine-protein kinase PLK1 (Homo sapiens) (UniProt P53350)
Sequence (P53350 whole entry): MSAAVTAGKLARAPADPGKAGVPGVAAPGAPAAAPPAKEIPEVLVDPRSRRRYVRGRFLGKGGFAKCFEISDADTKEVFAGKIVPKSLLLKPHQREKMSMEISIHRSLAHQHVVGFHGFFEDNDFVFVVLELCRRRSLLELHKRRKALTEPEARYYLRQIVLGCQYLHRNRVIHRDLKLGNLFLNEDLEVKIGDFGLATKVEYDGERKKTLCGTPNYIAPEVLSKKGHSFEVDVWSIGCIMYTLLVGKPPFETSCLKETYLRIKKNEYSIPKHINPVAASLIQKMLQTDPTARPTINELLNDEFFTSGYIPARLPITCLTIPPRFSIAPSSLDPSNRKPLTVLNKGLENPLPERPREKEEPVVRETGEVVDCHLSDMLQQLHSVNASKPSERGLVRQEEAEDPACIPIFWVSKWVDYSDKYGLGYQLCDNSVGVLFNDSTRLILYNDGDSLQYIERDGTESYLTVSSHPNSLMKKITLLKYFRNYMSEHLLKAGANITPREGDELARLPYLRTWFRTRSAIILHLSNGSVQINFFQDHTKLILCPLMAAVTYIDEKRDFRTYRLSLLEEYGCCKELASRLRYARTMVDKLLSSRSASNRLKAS
Settings: not given

SMILES | ΔTm
NS(=O)(=O)c1ccc(Nc2nc(OCC3CCCCC3)c3nc[nH]c3n2)cc1 | 5.1 °C
CC(C)[C@H](CO)Nc1nc(Nc2cc(N)cc(Cl)c2)c2ncn(C(C)C)c2n1 [AMINOPURVALANOL] | 1 °C
Cc1cc(C=C2C(=O)C=CC2=O)cc(C)c1O | 0.6 °C

Target: Dual specificity mitogen-activated protein kinase kinase 2 (Homo sapiens, UniProt P36507)
Sequence (P36507 whole entry): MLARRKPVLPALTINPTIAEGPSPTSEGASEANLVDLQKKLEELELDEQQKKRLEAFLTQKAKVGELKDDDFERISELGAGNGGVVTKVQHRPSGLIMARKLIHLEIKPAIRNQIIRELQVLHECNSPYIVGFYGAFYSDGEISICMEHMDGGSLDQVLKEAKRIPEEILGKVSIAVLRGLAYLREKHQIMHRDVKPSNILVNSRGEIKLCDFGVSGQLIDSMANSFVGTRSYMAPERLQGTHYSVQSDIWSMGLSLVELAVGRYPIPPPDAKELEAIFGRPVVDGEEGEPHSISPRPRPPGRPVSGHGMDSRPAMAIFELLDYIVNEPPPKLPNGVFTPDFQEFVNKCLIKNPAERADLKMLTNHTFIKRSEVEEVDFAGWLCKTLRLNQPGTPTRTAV
Settings: not given

SMILES | ΔTm
NS(=O)(=O)c1ccc(Nc2nc(OCC3CCCCC3)c3nc[nH]c3n2)cc1 | 0.8 °C
CC(C)[C@H](CO)Nc1nc(Nc2cc(N)cc(Cl)c2)c2ncn(C(C)C)c2n1 [AMINOPURVALANOL] | 0.1 °C
Cc1cc(C=C2C(=O)C=CC2=O)cc(C)c1O | -2 °C

Target: T2, Serine/threonine-protein kinase VRK1 (Homo sapiens) (UniProt Q99986)
T2 sequence (whole entry): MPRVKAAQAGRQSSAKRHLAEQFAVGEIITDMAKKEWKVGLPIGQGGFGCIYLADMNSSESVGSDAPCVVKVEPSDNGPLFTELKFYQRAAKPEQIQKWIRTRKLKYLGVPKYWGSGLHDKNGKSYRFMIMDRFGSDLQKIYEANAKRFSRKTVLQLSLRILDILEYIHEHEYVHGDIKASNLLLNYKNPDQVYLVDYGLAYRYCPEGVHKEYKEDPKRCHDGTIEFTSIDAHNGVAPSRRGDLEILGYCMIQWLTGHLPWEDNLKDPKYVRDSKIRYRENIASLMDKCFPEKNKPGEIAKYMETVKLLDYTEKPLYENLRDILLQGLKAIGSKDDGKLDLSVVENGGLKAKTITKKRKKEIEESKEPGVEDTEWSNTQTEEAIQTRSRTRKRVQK
Settings: not given

SMILES | ΔTm
NS(=O)(=O)c1ccc(Nc2nc(OCC3CCCCC3)c3nc[nH]c3n2)cc1 | 1.1 °C
Cc1cc(C=C2C(=O)C=CC2=O)cc(C)c1O | -3.1 °C

Target: T3, Myotonin-protein kinase (Homo sapiens) (UniProt Q09013)
T3 sequence (whole entry): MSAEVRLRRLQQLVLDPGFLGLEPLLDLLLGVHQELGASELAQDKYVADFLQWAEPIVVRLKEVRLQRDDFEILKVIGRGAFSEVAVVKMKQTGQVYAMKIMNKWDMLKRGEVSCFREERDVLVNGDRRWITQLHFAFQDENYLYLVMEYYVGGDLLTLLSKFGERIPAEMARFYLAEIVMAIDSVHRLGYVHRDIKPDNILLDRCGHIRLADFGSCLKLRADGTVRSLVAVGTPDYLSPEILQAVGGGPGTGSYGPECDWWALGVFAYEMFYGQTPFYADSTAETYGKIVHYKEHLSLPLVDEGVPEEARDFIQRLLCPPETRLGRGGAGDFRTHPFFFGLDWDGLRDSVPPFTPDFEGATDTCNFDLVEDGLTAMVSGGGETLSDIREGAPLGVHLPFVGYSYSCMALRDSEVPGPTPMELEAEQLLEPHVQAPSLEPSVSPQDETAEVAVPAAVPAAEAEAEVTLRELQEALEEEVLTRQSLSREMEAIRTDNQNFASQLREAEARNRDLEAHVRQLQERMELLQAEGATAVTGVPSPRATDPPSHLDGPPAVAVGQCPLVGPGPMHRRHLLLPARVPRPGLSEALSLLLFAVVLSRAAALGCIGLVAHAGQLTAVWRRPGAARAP
Settings: not given

SMILES | ΔTm
NS(=O)(=O)c1ccc(Nc2nc(OCC3CCCCC3)c3nc[nH]c3n2)cc1 | 3.2 °C
CC(C)[C@H](CO)Nc1nc(Nc2cc(N)cc(Cl)c2)c2ncn(C(C)C)c2n1 [AMINOPURVALANOL] | 2 °C
Cc1cc(C=C2C(=O)C=CC2=O)cc(C)c1O | 0.3 °C

Target: Casein kinase I isoform gamma-1 (Homo sapiens) (UniProt Q9HCP0)
Sequence (Q9HCP0 whole entry, looked up, canonical isoform): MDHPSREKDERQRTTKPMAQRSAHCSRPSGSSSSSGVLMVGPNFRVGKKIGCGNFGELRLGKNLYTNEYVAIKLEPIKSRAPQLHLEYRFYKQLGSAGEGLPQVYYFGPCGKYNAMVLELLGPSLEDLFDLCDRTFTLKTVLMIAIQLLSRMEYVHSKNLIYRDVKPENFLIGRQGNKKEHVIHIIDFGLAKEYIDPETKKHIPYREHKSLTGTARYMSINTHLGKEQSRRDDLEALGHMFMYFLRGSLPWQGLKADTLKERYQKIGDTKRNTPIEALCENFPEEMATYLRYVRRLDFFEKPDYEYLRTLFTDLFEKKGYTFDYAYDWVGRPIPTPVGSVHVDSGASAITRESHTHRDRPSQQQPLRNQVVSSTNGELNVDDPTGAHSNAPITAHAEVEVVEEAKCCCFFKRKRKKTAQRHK
Settings: not given

SMILES | ΔTm
NS(=O)(=O)c1ccc(Nc2nc(OCC3CCCCC3)c3nc[nH]c3n2)cc1 | 2.6 °C
CC(C)[C@H](CO)Nc1nc(Nc2cc(N)cc(Cl)c2)c2ncn(C(C)C)c2n1 [AMINOPURVALANOL] | 2 °C
Cc1cc(C=C2C(=O)C=CC2=O)cc(C)c1O | 0.1 °C

Target: Calcium/calmodulin-dependent protein kinase type 1G (Homo sapiens) (UniProt Q96NX5)
Sequence (Q96NX5 whole entry): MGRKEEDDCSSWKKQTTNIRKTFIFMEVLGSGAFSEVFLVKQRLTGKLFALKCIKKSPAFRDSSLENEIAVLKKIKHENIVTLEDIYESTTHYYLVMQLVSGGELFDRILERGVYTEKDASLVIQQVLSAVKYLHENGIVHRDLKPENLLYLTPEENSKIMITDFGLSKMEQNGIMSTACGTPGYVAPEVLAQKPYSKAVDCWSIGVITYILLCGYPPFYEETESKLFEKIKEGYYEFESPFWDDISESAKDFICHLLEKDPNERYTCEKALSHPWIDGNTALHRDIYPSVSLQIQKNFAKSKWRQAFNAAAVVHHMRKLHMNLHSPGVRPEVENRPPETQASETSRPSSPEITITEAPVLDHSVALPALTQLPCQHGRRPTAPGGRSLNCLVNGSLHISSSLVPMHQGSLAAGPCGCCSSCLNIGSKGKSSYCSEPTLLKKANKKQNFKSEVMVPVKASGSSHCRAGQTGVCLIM
Settings: not given

SMILES | ΔTm
NS(=O)(=O)c1ccc(Nc2nc(OCC3CCCCC3)c3nc[nH]c3n2)cc1 | 1.6 °C
CC(C)[C@H](CO)Nc1nc(Nc2cc(N)cc(Cl)c2)c2ncn(C(C)C)c2n1 [AMINOPURVALANOL] | 0.5 °C
Cc1cc(C=C2C(=O)C=CC2=O)cc(C)c1O | -0.4 °C

Target: Mitogen-activated protein kinase 3 (Homo sapiens, UniProt P27361)
Sequence (P27361 whole entry): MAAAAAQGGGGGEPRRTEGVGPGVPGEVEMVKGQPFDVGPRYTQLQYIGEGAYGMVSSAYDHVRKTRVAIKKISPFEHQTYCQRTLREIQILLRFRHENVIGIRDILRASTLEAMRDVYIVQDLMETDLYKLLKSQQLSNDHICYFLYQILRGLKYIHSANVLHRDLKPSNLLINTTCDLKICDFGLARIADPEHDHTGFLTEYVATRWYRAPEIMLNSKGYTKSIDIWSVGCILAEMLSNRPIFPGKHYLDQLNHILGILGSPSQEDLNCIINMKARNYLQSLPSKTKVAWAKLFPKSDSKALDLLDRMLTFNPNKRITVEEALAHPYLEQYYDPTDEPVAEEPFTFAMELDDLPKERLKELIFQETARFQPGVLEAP
Settings: not given

SMILES | ΔTm
NS(=O)(=O)c1ccc(Nc2nc(OCC3CCCCC3)c3nc[nH]c3n2)cc1 | 0.1 °C
CC(C)[C@H](CO)Nc1nc(Nc2cc(N)cc(Cl)c2)c2ncn(C(C)C)c2n1 [AMINOPURVALANOL] | 0.2 °C
Cc1cc(C=C2C(=O)C=CC2=O)cc(C)c1O | 0.6 °C

Target: Dual specificity protein kinase CLK2 (Homo sapiens) (UniProt P49760)
Sequence (P49760 whole entry, looked up): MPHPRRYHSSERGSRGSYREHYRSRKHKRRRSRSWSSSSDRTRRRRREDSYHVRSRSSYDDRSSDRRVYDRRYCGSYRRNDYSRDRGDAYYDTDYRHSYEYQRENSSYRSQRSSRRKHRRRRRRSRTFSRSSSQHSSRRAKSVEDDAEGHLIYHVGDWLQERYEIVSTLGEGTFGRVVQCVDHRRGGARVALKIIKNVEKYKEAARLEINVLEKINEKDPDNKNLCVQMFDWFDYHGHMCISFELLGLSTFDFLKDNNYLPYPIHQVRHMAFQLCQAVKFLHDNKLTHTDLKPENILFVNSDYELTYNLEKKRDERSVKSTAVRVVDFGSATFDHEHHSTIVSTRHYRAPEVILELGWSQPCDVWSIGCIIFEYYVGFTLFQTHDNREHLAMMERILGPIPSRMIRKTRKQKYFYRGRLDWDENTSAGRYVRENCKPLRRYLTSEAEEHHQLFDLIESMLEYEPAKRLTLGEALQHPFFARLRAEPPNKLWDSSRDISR
Settings: not given

SMILES | ΔTm
NS(=O)(=O)c1ccc(Nc2nc(OCC3CCCCC3)c3nc[nH]c3n2)cc1 | 2.7 °C
CC(C)[C@H](CO)Nc1nc(Nc2cc(N)cc(Cl)c2)c2ncn(C(C)C)c2n1 [AMINOPURVALANOL] | 4.5 °C
Cc1cc(C=C2C(=O)C=CC2=O)cc(C)c1O | -0.8 °C

Reference: ChEMBL document CHEMBL1145498, “A systematic interaction map of validated kinase inhibitors with Ser/Thr kinases” (Proc Natl Acad Sci U S A, 2007)
